# Source: patent US10765616B2, “Oral formulation of polyglucosamine derivatives in combination with a non-fermentable sugar” (SYNEDGEN, INC., priority 2013, dated 2020)
# How the values were obtained:
# S. mutans biofilms [1] = experiment: Comparative biofilm reduction study of oral rinses and active ingredients (MBEC pegs); format: cell-based, Streptococcus mutans; conditions: 72 h S. mutans biofilms, treated 2 minutes twice (6-hour interval), vs water control
# Description: Biofilms of S. mutans were grown on hydroxyapatite-coated pegs according to MBEC Assay™ methods for 72 hours, and then treated with the oral rinses or a water control. The corresponding active ingredients were also evaluated. The biofilms were exposed for 2-minutes, twice in a 6-hour interval to evaluate biofilm removal. Following treatment, biofilms were rinsed, fixed, and stained with 0.4% Crystal Violet, and remaining biofilm was quantitated via CFU or OD595 (Beenken and Smeltzer, 2003). Biofilms were analyzed in triplicate in at least 3 independent assays. Ratios were averaged from all assays and the percent biofilm reduced and standard error compared to water control is shown.
# S. mutans biofilms [2] = experiment: MBEC peg biofilm biomass reduction assay of active ingredients (twice daily, OD595); format: cell-based, Streptococcus mutans; conditions: 2 minutes, 8-hour interval, 32 μg/mL PAAG, 1.5% hydrogen peroxide, alcohol, lactoferrin, chlorhexidine
# Description: The S. mutans biofilms were grown according to MBEC™ for High-throughput Screening methods (Innovotech) on a hydroxyapatite-coated peg lid placed in trough containing BHI media supplemented with 1% sucrose rocking for 72 hours. The pegs were treated twice daily with PAAG (30% functionalized, 86 kD) active ingredients (FIG. 9) at 8-hour intervals for 2-minutes. The biofilms were rinsed in PBS, and the pegs were removed and placed into 200 μl 95% ethanol each for 2 minutes to fix the biofilms. The MBEC-HTP biofilms were stained with 150 μl of 3% Crystal Violet dye each for 2 minutes, and rinsed five times with PBS. It was noted that chlorhexidine appears to “fix” the biofilm to the pegs. The bacteria may or may not be viable because OD measured biofilm biomass, not viable CFUs. The stained and rinsed MBEC-HTP biofilms were then placed in 150 μL ethanol for 1-minute to remove the dye/biofilm. Then 100 μL of the ethanol and dyed biofilm suspension was placed into a 96-well plate and the OD595 was measured to quantify the remaining stained biofilm biomass.
# A431 epithelial cells = test system: A431 epithelial cells
# Description: Human epithelial cell monolayers of A431 (ATCC CRL-1555) were seeded in tissue culture treated 96-well plates at a density of 2×10^4 cells/well in DMEM media supplemented with 10% FBS, 1% Penicillin-Streptomycin, and 1% Amphotericin B. Seeded cells were incubated at 37° C. with 5% CO2 for 48 hours. The media was removed and replaced with serum-free, antimicrobial-free media and rinsed one time for 30 seconds with PAAG Oral Formulation H, other oral products (Biotene, Corsodyl, Peroxyl, or Listerine), 32 μg/mL PAAG (30% functionalized, 86 kDa) and other active ingredients (0.029% lactoferrin, 0.2% chlorhexidine gluconate, 1.5% hydrogen peroxide, or 20% alcohol). Epithelial cell viability was determined by ATPLite Luminescence ATP Detection Assay System (PerkinElmer). Testing was done in duplicate.
# Epithelial cell viability was compared between PAAG and other oral active ingredients and oral rinse products. Human epithelial cell monolayers were rinsed once for 30 seconds with each treatment. Following treatment, the epithelial cells were evaluated with ATP LITE Luminecence assay that measured viability via ATP. The data was normalized to untreated cells to compare percent survival (FIG. 4). […] The cells were rinsed once with PAAG Oral Formulation H, other oral rinse products (Biotene, Corsodyl, Peroxyl, or Listerine), oral products active ingredients (0.0032% PAAG, 0.029% lactoferrin (LF), 0.2% chlorhexidine (CHG), 1.5% hydrogen peroxide, or 20% alcohol). PAAG Oral Formulation H contains sorbitol (17.5%), glycerin (10%), xylitol (2.5%), polysorbate 20 (1.5%), peppermint oil (0.2%), benzoic acid (0.3%), sodium fluoride (0.5%), and PAAG (0.0032%). Epithelial cell viability was determined by ATPLite Luminescence ATP Detection Assay System (Perkin Elmer) and compared to media rinsed cells.
# S. mutans = experiment: PAAG and sorbitol combination bactericidal assay (viable plate counts); format: cell-based, Streptococcus mutans; conditions: sorbitol 0-25% w/v, 30 minutes
# Description: A range of sorbitol concentrations (0-25% w/v) was mixed with a range of PAAG concentrations (4-32 μg/mL, 86 kDa, 30% functionalized). S. mutans was exposed to each for 30 minutes before being neutralized with D/E neutralization broth, then diluted and plated for measurement of viable plate counts (CFU).
# [3] = active ingredients at the concentration printed in the row or sentence
Compound,Percent (%) Biomass Reduced (S. mutans biofilms [1]; [3]) [%],reduction in S. mutans biofilm biomass compared to water control (S. mutans biofilms [2]),epithelial cell viability (A431 epithelial cells),other results
"CCO [Alcohol, alcohol]",39.9 ± 3.9,significant reduction,,"Percent (%) Biomass Reduced (S. mutans biofilms [1]; active ingredients at the concentration printed in the row or sentence, listed as alcohol): 39.9±3.9%"
"[H]/N=C(\N/C(=N/[H])NCCCCCCNC(=N)NC(=N)Nc1ccc(Cl)cc1)Nc1ccc(Cl)cc1 [Chlorhexidine, chlorhexidine gluconate]",17.1 ± 4.5,did not significantly reduce,,"Percent (%) Biomass Reduced (S. mutans biofilms [1]; active ingredients at the concentration printed in the row or sentence, listed as Chlorhexidine gluconate): 17.1±4.5%"
OO [hydrogen peroxide],36.9±3.8,significant reduction,maintain epithelial cell viability,"Percent (%) Biomass Reduced (S. mutans biofilms [1]; active ingredients at the concentration given, listed as H2O2): 36.9 ± 3.8%"
OC[C@@H](O)[C@@H](O)[C@H](O)[C@@H](O)CO [sorbitol],,,,effect of sorbitol alone on bacterial viability (S. mutans): did not affect bacterial viability
"poly (acetyl, arginyl) glucosamine [PAAG]",,,maintain epithelial cell viability,cytotoxicity to epithelial cells compared to other oral rinse products (A431 epithelial cells): least cytotoxic
